For twelve compounds, logD and logP results are on record in the SangsterLogP compilation.

A short description of the first data set: method code SF-HPLC, from DOI: 10.1080/10826079708014133. The settings on record: pH 11.0.
In turn, `CCc1ccc(OCC2CN=C(N)O2)cc1` (configuration not stated) had a logD of 2.27.

In turn, `Cc1cccc(C)c1OCC1CN=C(N)O1` (configuration not stated) displayed a pH-dependent lipophilicity (logD) of 2.

`Cc1cccc(OCC2CN=C(N)O2)c1` (configuration not stated) yielded a logD of 1.75.

`NC1=NCC(COc2cccc(Cl)c2)O1` (configuration not stated): the logD came out at 2.09.

Consider `NC1=NCC(COc2ccc(-c3ccccc3)cc2)O1` (configuration not stated), for which the pH-dependent lipophilicity (logD) was determined as 2.8.

Consider `NC1=NCC(COc2cccc(C(F)(F)F)c2)O1` (configuration not stated), for which the log distribution coefficient (logD) was 2.35.

The compound `Cc1ccc(OCC2CN=C(N)O2)cc1C` (configuration not stated) gave a logD of 2.1.

As for `Cc1cccc(OCC2CN=C(N)O2)c1C` (configuration not stated), the logD amounted to 2.25. The logD values of the last two compounds are within 0.2 log units of each other.

For `Cc1ccc(OCC2CN=C(N)O2)c(C)c1` (configuration not stated), the log distribution coefficient (logD) turned out to be 2.23.

As to `Cc1ccc(C)c(OCC2CN=C(N)O2)c1` (configuration not stated), the logD is 2.29.

Assay in a further data set: not given
Conditions: not given
`NC1=NCC(COc2ccccc2Cc2ccccc2)O1` (configuration not stated) yielded a log partition coefficient (logP) of 3.05.

For the compound `CCC(C)(C)c1ccc(OCC2CN=C(N)O2)cc1` (configuration not stated), the logP stood at 3.69.

A word on the logD: it is the decadic logarithm of the distribution of all forms, ionised or not, between an organic phase and buffer at a given pH. For orientation: logP means the decadic logarithm of the partition coefficient of the neutral form, usually between octanol and water. A lower logP goes with lower lipophilicity.
